# Source: ChEMBL document CHEMBL3217516, “Library synthesis and cytotoxicity of a family of 2-phenylacrylonitriles and discovery of an estrogen dependent breast cancer lead compound” (Medchemcomm, 2011)
# How the values were obtained:
# Type in all cases: functional
# [1] = Cytotoxicity against human MIA cells after 72 hrs by MTT assay
# [2] = Cytotoxicity against human BE(2)-C cells after 72 hrs by MTT assay
# [3] = system: SW480; experiment: Cytotoxicity against human SW480 cells after 72 hrs by MTT assay; settings: SW480, 72 h
# [4] = system: MCF7; experiment: Cytotoxicity against human MCF7 cells after 72 hrs by MTT assay; settings: MCF7, 72 h
# [5] = system: A-431; experiment: Cytotoxicity against human A431 cells after 72 hrs by MTT assay; settings: A-431, 72 h
# [6] = system: HT-29; experiment: Cytotoxicity against human HT-29 cells after 72 hrs by MTT assay; settings: HT-29, 72 h
# [7] = Cytotoxicity against human SJ-G2 cells after 72 hrs by MTT assay; settings: SJ-G2, 72 h
# [8] = system: DU-145; experiment: Cytotoxicity against human DU145 cells after 72 hrs by MTT assay; settings: DU-145, 72 h
# [9] = system: A2780; experiment: Cytotoxicity against human A2780 cells after 72 hrs by MTT assay; settings: A2780, 72 h
# [10] = Cytotoxicity against human H460 cells after 72 hrs by MTT assay; settings: NCI-H460, 72 h
# [11] = system: SW480; experiment: Cytotoxicity against human SW480 cells at 100 uM after 72 hrs by MTT assay; settings: SW480, 72 h, read-out: GI
# [12] = system: HT-29; experiment: Cytotoxicity against human HT-29 cells at 100 uM after 72 hrs by MTT assay; settings: HT-29, 72 h, read-out: GI
# [13] = Cytotoxicity against human SJ-G2 cells at 100 uM after 72 hrs by MTT assay; settings: SJ-G2, 72 h, read-out: GI
# [14] = system: MCF7; experiment: Cytotoxicity against human MCF7 cells at 100 uM after 72 hrs by MTT assay; settings: MCF7, 72 h, read-out: GI
# [15] = system: DU-145; experiment: Cytotoxicity against human DU145 cells at 100 uM after 72 hrs by MTT assay; settings: DU-145, 72 h, read-out: GI
# [16] = Cytotoxicity against human MIA cells at 100 uM after 72 hrs by MTT assay; settings: read-out: GI
# [17] = system: A2780; experiment: Cytotoxicity against human A2780 cells at 100 uM after 72 hrs by MTT assay; settings: A2780, 72 h, read-out: GI
# [18] = Cytotoxicity against human BE(2)-C cells at 100 uM after 72 hrs by MTT assay; settings: read-out: GI
# [19] = system: A-431; experiment: Cytotoxicity against human A431 cells at 100 uM after 72 hrs by MTT assay; settings: A-431, 72 h, read-out: GI
# [20] = Cytotoxicity against human H460 cells at 100 uM after 72 hrs by MTT assay; settings: NCI-H460, 72 h, read-out: GI
Structure (SMILES),GI50 [1],GI50 [2],GI50 [3],GI50 [4],GI50 [5],GI50 [6],GI50 [7],GI50 [8],GI50 [9],GI50 [10],inhibition of growth at 100 µM [11],inhibition of growth at 100 µM [12],inhibition of growth at 100 µM [13],inhibition of growth at 100 µM [14],inhibition of growth at 100 µM [15],inhibition of growth at 100 µM [16],inhibition of growth at 100 µM [17],inhibition of growth at 100 µM [18],inhibition of growth at 100 µM [19],inhibition of growth at 100 µM [20]
N#C/C(=C\c1ccc(F)cc1)c1ccc(Cl)c(Cl)c1,11 µM,–,–,–,–,–,–,–,–,–,–,–,–,–,–,–,–,–,–,–
COc1ccc(/C=C(\C#N)c2ccc(Cl)c(Cl)c2)cc1,0.7 µM,–,–,–,–,–,–,–,–,–,–,–,–,–,–,–,–,–,–,–
N#C/C(=C\c1ccc[nH]1)c1ccccc1,81 µM,61 µM,26 µM,17 µM,57 µM,41 µM,46 µM,> 100 µM,25 µM,81 µM,–,–,–,–,–,–,–,–,–,–
N#C/C(=C\c1ccc[nH]1)c1ccc([N+](=O)[O-])cc1,34 µM,22 µM,24 µM,18 µM,27 µM,25 µM,24 µM,26 µM,18 µM,32 µM,–,–,–,–,–,–,–,–,–,–
N#C/C(=C\c1ccc[nH]1)c1ccc(F)cc1,63 µM,43 µM,24 µM,15 µM,37 µM,31 µM,30 µM,59 µM,25 µM,52 µM,–,–,–,–,–,–,–,–,–,–
N#C/C(=C\c1ccc[nH]1)c1ccc(Cl)cc1,38 µM,21 µM,22 µM,4 µM,23 µM,18 µM,20 µM,37 µM,18 µM,19 µM,–,–,–,–,–,–,–,–,–,–
N#C/C(=C\c1ccc(O)cc1)c1ccc(Cl)c(Cl)c1,28 µM,22 µM,36 µM,23 µM,21 µM,30 µM,21 µM,45 µM,20 µM,26 µM,–,–,–,–,–,–,–,–,–,–
CC(=O)Oc1ccc(/C=C(\C#N)c2ccc(Cl)c(Cl)c2)cc1,38 µM,22 µM,27 µM,25 µM,25 µM,18 µM,21 µM,47 µM,18 µM,33 µM,–,–,–,–,–,–,–,–,–,–
N#C/C(=C\c1ccncc1)c1ccc(Cl)c(Cl)c1,22 µM,16 µM,18 µM,15 µM,26 µM,18 µM,22 µM,24 µM,18 µM,9.4 µM,–,–,–,–,–,–,–,–,–,–
N#C/C(=C\c1cc(O)cc(O)c1)c1ccc(Cl)c(Cl)c1,> 100 µM,> 100 µM,90 µM,28 µM,88 µM,> 100 µM,95 µM,> 100 µM,93 µM,> 100 µM,–,–,–,–,–,–,–,–,–,–
N#CC(Cc1ccc[nH]1)c1ccccc1 (configuration not stated),–,–,–,–,–,–,–,–,–,–,40%,39%,27%,47%,7%,30%,76%,43%,20%,15%
N#CC(Cc1ccc[nH]1)c1ccc(F)cc1 (configuration not stated),90 µM,75 µM,78 µM,65 µM,89 µM,73 µM,86 µM,91 µM,69 µM,88 µM,–,–,–,–,–,–,–,–,–,–
N#CC(Cc1ccc[nH]1)c1ccc(Cl)cc1 (configuration not stated),58 µM,45 µM,53 µM,26 µM,58 µM,37 µM,52 µM,60 µM,26 µM,58 µM,–,–,–,–,–,–,–,–,–,–
N#CC(Cc1ccc[nH]1)c1ccc([N+](=O)[O-])cc1 (configuration not stated),82 µM,65 µM,70 µM,37 µM,78 µM,67 µM,87 µM,90 µM,29 µM,64 µM,–,–,–,–,–,–,–,–,–,–
N#CC(Cc1ccc[nH]1)c1ccc(Cl)c(Cl)c1 (configuration not stated),–,–,–,–,–,–,–,–,–,–,34%,51%,33%,84%,24%,20%,63%,42%,44%,55%
CCCC/C=C(\C#N)c1ccc(Cl)c(Cl)c1,95 µM,73 µM,68 µM,49 µM,88 µM,53 µM,70 µM,87 µM,24 µM,100 µM,–,–,–,–,–,–,–,–,–,–
CCCCCCCCC/C=C(\C#N)c1ccc(Cl)c(Cl)c1,–,–,–,–,–,–,–,–,–,–,68%,53%,70%,49%,87%,22%,24%,73%,88%,100%
N#C/C(=C/c1ccc2ccccc2c1)C(=O)c1ccc[nH]1,< 10 µM,< 10 µM,< 10 µM,12 µM,< 10 µM,< 10 µM,< 10 µM,< 10 µM,< 10 µM,< 10 µM,–,–,–,–,–,–,–,–,–,–
Cc1ccc(/C=C(/C#N)C(=O)c2ccc[nH]2)cc1,27 µM,11 µM,14 µM,39 µM,< 10 µM,14 µM,20 µM,< 10 µM,19 µM,11 µM,–,–,–,–,–,–,–,–,–,–
N#C/C(=C/c1ccc(Cl)cc1)C(=O)c1ccc[nH]1,59 µM,63 µM,68 µM,84 µM,31 µM,54 µM,53 µM,32 µM,75 µM,38 µM,–,–,–,–,–,–,–,–,–,–
N#C/C(=C/c1ccc([N+](=O)[O-])cc1)C(=O)c1ccc[nH]1,< 10 µM,19 µM,< 10 µM,19 µM,< 10 µM,< 10 µM,< 10 µM,< 10 µM,19 µM,< 10 µM,–,–,–,–,–,–,–,–,–,–
N#C/C(=C/c1ccc(Cl)c(Cl)c1)C(=O)c1ccc[nH]1,< 10 µM,14 µM,< 10 µM,14 µM,< 10 µM,< 10 µM,10 µM,< 10 µM,< 10 µM,< 10 µM,–,–,–,–,–,–,–,–,–,–
N#C/C(=C/c1ccc(O)cc1)C(=O)c1ccc[nH]1,11 µM,< 10 µM,< 10 µM,15 µM,< 10 µM,< 10 µM,< 10 µM,< 10 µM,< 10 µM,< 10 µM,–,–,–,–,–,–,–,–,–,–
COc1ccc(/C=C(/C#N)C(=O)c2ccc[nH]2)cc1,< 10 µM,< 10 µM,< 10 µM,22 µM,13 µM,< 10 µM,< 10 µM,< 10 µM,< 10 µM,24 µM,–,–,–,–,–,–,–,–,–,–
N#C/C(=C\c1ccccc1)c1ccc(Cl)c(Cl)c1,–,–,–,–,–,–,–,–,–,–,67%,56%,72%,79%,36%,61%,62%,47%,71%,36%
Cc1ccc(/C=C(\C#N)c2ccc(Cl)c(Cl)c2)cc1,2 µM,2.2 µM,2.3 µM,2.2 µM,1.8 µM,1.6 µM,2.1 µM,2.2 µM,2 µM,2.1 µM,–,–,–,–,–,–,–,–,–,–
N#C/C(=C\c1ccc2ccccc2c1)c1ccc(Cl)c(Cl)c1,2.1 µM,1.9 µM,2.3 µM,1.5 µM,1.8 µM,1.6 µM,2.3 µM,2.7 µM,1.8 µM,1.7 µM,–,–,–,–,–,–,–,–,–,–
N#C/C(=C\c1ccc(Cl)cc1)c1ccc(Cl)c(Cl)c1,4 µM,4.1 µM,5 µM,4.3 µM,4.3 µM,2.5 µM,6.1 µM,12 µM,4 µM,4.8 µM,–,–,–,–,–,–,–,–,–,–
N#C/C(=C\c1ccc(Br)cc1)c1ccc(Cl)c(Cl)c1,21 µM,21 µM,22 µM,16 µM,20 µM,20 µM,22 µM,26 µM,20 µM,21 µM,–,–,–,–,–,–,–,–,–,–
